Measurements from ChEMBL document CHEMBL1671687, “Enhancement of biofilm formation by subinhibitory concentrations of macrolides in icaADBC-positive and -negative clinical isolates of Staphylococcus epidermidis” (2010).

What was measured:
Assay type in all cases: functional
[1] = tested on: Staphylococcus epidermidis; test: Enhancement of biofilm formation Staphylococcus epidermidis SW067 expressing icaA gene at subinhibitory concentration by microtiter plate assay; set-up: scale not given: the % may be the effect or the level left
[2] = tested on: Staphylococcus epidermidis; test: Enhancement of biofilm formation Staphylococcus epidermidis SW045 expressing icaA gene at subinhibitory concentration by microtiter plate assay; set-up: scale not given: the % may be the effect or the level left
[3] = tested on: Staphylococcus epidermidis; test: Enhancement of biofilm formation Staphylococcus epidermidis SW085 expressing icaA gene at subinhibitory concentration by microtiter plate assay; set-up: scale not given: the % may be the effect or the level left
[4] = tested on: Staphylococcus epidermidis; test: Enhancement of biofilm formation Staphylococcus epidermidis SW104 expressing icaA gene at subinhibitory concentration by microtiter plate assay; set-up: scale not given: the % may be the effect or the level left
[5] = tested on: Staphylococcus epidermidis; test: Enhancement of biofilm formation Staphylococcus epidermidis SW021 at subinhibitory concentration by microtiter plate assay; set-up: scale not given: the % may be the effect or the level left
[6] = tested on: Staphylococcus epidermidis; test: Enhancement of biofilm formation Staphylococcus epidermidis SW029 expressing icaA gene at subinhibitory concentration by microtiter plate assay; set-up: scale not given: the % may be the effect or the level left
[7] = tested on: Staphylococcus epidermidis; test: Enhancement of biofilm formation Staphylococcus epidermidis SW115 at subinhibitory concentration by microtiter plate assay; set-up: scale not given: the % may be the effect or the level left
[8] = tested on: Staphylococcus epidermidis; test: Enhancement of biofilm formation Staphylococcus epidermidis SW071 at subinhibitory concentration by microtiter plate assay; set-up: scale not given: the % may be the effect or the level left
[9] = tested on: Staphylococcus epidermidis; test: Enhancement of biofilm formation Staphylococcus epidermidis SW036 at subinhibitory concentration by microtiter plate assay; set-up: scale not given: the % may be the effect or the level left
[10] = tested on: Staphylococcus epidermidis; test: Antimicrobial activity against Staphylococcus epidermidis SW036
[11] = tested on: Staphylococcus epidermidis; test: Enhancement of biofilm formation Staphylococcus epidermidis SW070 at subinhibitory concentration by microtiter plate assay; set-up: scale not given: the % may be the effect or the level left
[12] = tested on: Staphylococcus epidermidis; test: Enhancement of biofilm formation Staphylococcus epidermidis SW099 at subinhibitory concentration by microtiter plate assay; set-up: scale not given: the % may be the effect or the level left
[13] = tested on: Staphylococcus epidermidis; test: Antimicrobial activity against Staphylococcus epidermidis SW027 expressing icaA gene assessed as enhancement of biofilm formation at subinhibitory concentration by microtiter plate assay; set-up: scale not given: the % may be the effect or the level left
[14] = tested on: Staphylococcus epidermidis; test: Enhancement of biofilm formation Staphylococcus epidermidis SW098 expressing icaA gene at subinhibitory concentration by microtiter plate assay; set-up: scale not given: the % may be the effect or the level left
[15] = tested on: Staphylococcus epidermidis; test: Enhancement of biofilm formation Staphylococcus epidermidis ATCC 35984 expressing icaA gene at subinhibitory concentration by microtiter plate assay; set-up: scale not given: the % may be the effect or the level left
[16] = tested on: Staphylococcus epidermidis; test: Enhancement of biofilm formation Staphylococcus epidermidis SW032 expressing icaA gene at subinhibitory concentration by microtiter plate assay; set-up: scale not given: the % may be the effect or the level left
[17] = tested on: Staphylococcus epidermidis; test: Enhancement of biofilm formation Staphylococcus epidermidis SW120 at subinhibitory concentration by microtiter plate assay; set-up: scale not given: the % may be the effect or the level left
[18] = tested on: Staphylococcus epidermidis; test: Antimicrobial activity against Staphylococcus epidermidis SW029 expressing icaA gene
[19] = tested on: Staphylococcus epidermidis; test: Enhancement of biofilm formation Staphylococcus epidermidis SW082 at subinhibitory concentration by microtiter plate assay; set-up: scale not given: the % may be the effect or the level left
[20] = tested on: Staphylococcus epidermidis; test: Enhancement of biofilm formation Staphylococcus epidermidis SW126 expressing icaA gene at subinhibitory concentration by microtiter plate assay; set-up: scale not given: the % may be the effect or the level left
[21] = tested on: Staphylococcus epidermidis; test: Enhancement of biofilm formation Staphylococcus epidermidis SW058 expressing icaA gene at subinhibitory concentration by microtiter plate assay; set-up: scale not given: the % may be the effect or the level left
[22] = tested on: Staphylococcus epidermidis; test: Enhancement of biofilm formation Staphylococcus epidermidis SW088 at subinhibitory concentration by microtiter plate assay; set-up: scale not given: the % may be the effect or the level left
[23] = tested on: Staphylococcus epidermidis; test: Enhancement of biofilm formation Staphylococcus epidermidis SW061 expressing icaA gene at subinhibitory concentration by microtiter plate assay; set-up: scale not given: the % may be the effect or the level left
[24] = tested on: Staphylococcus epidermidis; test: Enhancement of biofilm formation Staphylococcus epidermidis SW015 at subinhibitory concentration by microtiter plate assay; set-up: scale not given: the % may be the effect or the level left

With `CC[C@H]1OC(=O)[C@H](C)[C@@H](O[C@H]2C[C@@](C)(OC)[C@@H](O)[C@H](C)O2)[C@H](C)[C@@H](O[C@@H]2O[C@H](C)C[C@H](N(C)C)[C@H]2O)[C@](C)(O)C[C@@H](C)CN(C)[C@H](C)[C@@H](O)[C@]1(C)O` [AZITHROMYCIN] the Activity [1] was 128.8%, the Activity [2] was 33.4% and the Activity [3] was 298.3%. For the same compound, the Activity [4] was 48.1%, the Activity [5] was 39.8% and the Activity [6] was 157.9%. The Activity [7] was 184.3%, the Activity [8] was 277.8% and the Activity [9] was 289.2%. The MIC [10] was > 128 µg/mL, the Activity [11] was 92.3% and the Activity [12] was 47%. The Activity [13] was 49.1%, the Activity [14] was 104% and the Activity [15] was 2.5%. The Activity [16] was 71.8%, the Activity [17] was 75.8% and the MIC [18] was > 128 µg/mL. It also gave an Activity [19] of 59.8%, an Activity [20] of 56.4% and an Activity [21] of 37.6%. For the same compound, the Activity [22] was 117.2%, the Activity [23] was 58.4% and the Activity [24] was 57.3%.
